Assays:
Assay type in all cases: functional
Design in all cases: scale not given: the % may be the effect or the level left
Spodoptera frugiperda [1] = assay: Antiinsecticidal activity against Spodoptera frugiperda assessed as reduction in growth rate at 100 ppm relative to control
Spodoptera frugiperda [2] = assay: Antiinsecticidal activity against Spodoptera frugiperda assessed as reduction in growth rate at 80 ppm relative to control
Spodoptera frugiperda [3] = assay: Antiinsecticidal activity against Spodoptera frugiperda assessed as reduction in growth rate at 360 ppm relative to control

Row | Structure (SMILES) | Activity (Spodoptera frugiperda [1]) | further results
1 | CC1=CC[C@@H]2[C@]34CC[C@](O)(OC3)C(C)(C)[C@@H]4CC[C@@]2(C)[C@@]12Oc1cc(-c3cccnc3)oc(=O)c1[C@@H]2O [DECATURIN B] | 89% | 
2 | CC1=CC[C@@H]2[C@]34CC[C@](O)(OC3)C(C)(C)[C@@H]4CC[C@@]2(C)[C@]12Cc1c(cc(-c3cccnc3)oc1=O)O2 [DECATURIN C] |  | Activity (Spodoptera frugiperda [2]): 28%
3 | CC1=CC[C@@H]2[C@@]3(C)CCC(=O)C(C)(C)[C@@H]3CC[C@@]2(C)[C@]12Cc1c(cc(-c3cccnc3)oc1=O)O2 [DECATURIN D] | 77% | 
4 | C=C(C)[C@@H]1CC[C@]2(C)[C@H](CC=C(C)[C@]23Oc2cc(-c4cccnc4)oc(=O)c2[C@@H]3O)[C@@]12CCC(=O)OC2 [OXALICINE A] |  | Activity (Spodoptera frugiperda [3]): 98%
5 | C=C(C)[C@]1(O)CC[C@]2(C)[C@H](CC=C(C)[C@]23Oc2cc(-c4cccnc4)oc(=O)c2[C@@H]3O)[C@@]12CCC(=O)OC2 [OXALICINE B] | 62% | 
